Columns and labels:
SMC = assay: Smooth muscle cell proliferation on modified TG-PEG gels with PDGF-BB; format: cell-based
Method: Method: Three different gels were fabricated, unmodified PEG, and PEG gels modified with TNC III1-5 or FN III9*-10,TNC III1-5 (5 μM). Unbound fragment was washed from the gels. Sequentially, gels were incubated for 1 hour at 37° C. with 100 μL DMEM without PDGF-BB or with PDGF-BB (1 ng per gel). For one set of gels, the media containing PDGF-BB was removed and gels were washed for 1 hour at RT. Cells were added to each gel and a proliferation assay with Alamar Blue was performed at 72 hours.

[1] = target: T1, binding of TNC III1-5 to the cytokines (Homo sapiens, UniProt P24821); assay: Competition ELISA: TNC III1-5 binding to cytokines with gradient of full length tenascin or heparin; settings: high concentrations of competitor; 10 nM TNC III1-5
T1 construct: factor Xa cleavage site (N); made in house; host or cells: HEK-293E
T1 sequence (P24821 622-1074): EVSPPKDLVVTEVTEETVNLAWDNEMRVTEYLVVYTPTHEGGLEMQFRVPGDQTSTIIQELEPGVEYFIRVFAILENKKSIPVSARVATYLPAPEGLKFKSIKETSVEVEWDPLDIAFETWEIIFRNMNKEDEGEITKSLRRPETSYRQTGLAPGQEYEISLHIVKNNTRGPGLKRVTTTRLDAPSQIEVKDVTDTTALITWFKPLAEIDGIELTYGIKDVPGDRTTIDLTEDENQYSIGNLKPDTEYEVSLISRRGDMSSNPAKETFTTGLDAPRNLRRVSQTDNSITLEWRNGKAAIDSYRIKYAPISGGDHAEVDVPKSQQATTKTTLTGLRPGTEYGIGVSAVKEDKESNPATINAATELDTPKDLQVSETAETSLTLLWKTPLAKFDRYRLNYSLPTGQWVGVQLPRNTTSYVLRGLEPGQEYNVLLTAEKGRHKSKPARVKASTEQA
Method: ELISA plates were coated with cytokines or BSA and further incubated with TNC III1-5 in the presence of a gradient of full length tenascin or heparin to verify the specificity of the binding. […] TNC bound to the cytokines, making them unavailable for TNC III1-5, while heparin bound to TNC III1-5, blocking it to bind to the cytokines. Method: 50 nM of cytokine was coated for (1 hr, 37° C.). After blocking with 2% BSA (1 hr, RT). 10 nM TNC III1-5 was applied in PBST (0.05% tween, 0.1% bovine serum albumin (BSA)) (1 hr, RT) in the presence of a gradient of full length tenascin (0, 0.2, 0.6, 1.9, 5.6, 17, 50 nM) or heparin (0.01, 0.64, 3.2, 16, 80, 400, 2000, 10000). TNC III1-5 was detected with HRP-anti-HIS in PBST (1 hr, RT) and developed with TMB. Background values were obtained by applying each tenascin (0, 0.2, 0.6, 1.9, 5.6, 17, 50 nM) or heparin (0.01, 0.64, 3.2, 16, 80, 400, 2000, 10000) concentration to the cytokine without TNC III1-5, and were subtracted as normalization.
To verify specific binding of tenascin to the cytokines, tenascin (0, 0.1, 0.2, 0.6, 1.9, 5.6, 17, 50 nM) was incubated with PDGF-BB (50 nM) and BSA and detected with mouse anti-tenascin, HRP-anti-mouse, and TMB.

HUVEC cells = assay: HUVEC proliferation with cytokines with or without fibrinogen or Fg β15-66; format: cell-based, human; settings: 72 hours; ≧100-fold molar excess; VEGF-A165, PlGF-2, FGF-2
Method: To verify that cytokines bound to Fg β15-66 are still bioactive, the proliferation of HUVEC cells was tested for different cytokines with and without the presence of Fg β15-66. Method: HUVEC cells were stimulated with various cytokines: VEGF-A165, PlGF-2, and FGF-2 with or without fibrinogen or Fg β15-66 in excess (≧100-fold molar excess).

[2] = target: T2, binding of TNC III1-5 to cytokines (Homo sapiens, UniProt P24821); assay: ELISA binding of TNC III1-5 to cytokines in presence of 4 μM heparin; settings: heparin 4 μM; 100 nM TNC III1-5
T2 construct: factor Xa cleavage site (N); made in house; host or cells: HEK-293E
Method: ELISA plates were coated with cytokines or BSA and further incubated with TNC III1-5 to analyze binding of TNC III1-5 to a wide variety of cytokines. […] Results are depicted in FIG. 3. Method: 50 nM of cytokine was coated for (1 hr, 37° C.). After blocking with 2% BSA (1 hr, RT). 100 nM TNC III1-5 was applied in PBST (0.05% tween, 0.1% bovine serum albumin (BSA)) (1 hr, RT). TNC III1-5 was detected with horseradish peroxidase (HRP)-anti-HIS in PBST (1 hr, RT) and developed with 3,3′,5,5′-tetramethylbenzidine (TMB), a soluble colorimetric HRP […]. Addition of sulfuric acid stop solution changes the color to yellow, enabling accurate measurement of the intensity at 450 nm using a spectrophotometer or plate reader. […] Heparin (4 μM) was added to TNC III1-5 to test the effect of blocking the heparin binding site of TNC III1-5, which has been defined as domain TNC III5 (Weber, Zimmermann, et al., 1995).

skin wounds = settings: applied topically for five consecutive days; 20 μg/wound VEGF-A165 or 10 μg/wound PDGF-BB; cited from earlier work
PDGF-BB = PDGF-BB (Homo sapiens, UniProt P01127); assay: ELISA of individual TNC domains binding PDGF-BB
Method: An ELISA was performed to test the affinity of different domains present in TNC1-5 to PDGF-BB as an example cytokine that has shown to bind TNC III1-5. […] Method: ELISA plates were coated with individual TNC domains fused to GST, as well as GST and BSA. Wells were blocked with BSA and then incubated with 2 nM PDGF-BB. Binding of PDGF-BB was detected using an anti-PDGF-BB antibody and then a secondary horseradish peroxidase conjugated antibody.

FN III9*-10-TNC III1-5: fusion protein of fibronectin integrin binding domain FN III9*-10 and TNC III1-5 with TG substrate, SEQ ID NO:5
SMC proliferation on top of a PEG gel, fusion vs TNC III1-5 (SMC; addition of FN III9*-10 to TNC III1-5): significantly enhanced SMC proliferation | SMC proliferation on TG-PEG gels (2%) (SMC; in the presence of PDGF-BB, 5 μM fragment, 72 hours): enhanced SMC proliferation

TNC: full length tenascin C, extracellular matrix glycoprotein, used as competitor
competition of binding of TNC III1-5 to the cytokines [1]: competed away binding

fibrinogen [reference compound]
synergistic effect on HUVEC proliferation, cytokines plus protein vs cytokines alone (HUVEC cells): no synergistic effect

heparin
competition of binding of TNC III1-5 to the cytokines [1]: competed away binding | effect on binding of TNC III1-5 to cytokines [2]: impaired binding

B1: VEGF-A165: vascular endothelial growth factor, cytokine applied topically (protein)
chain: APMAEGGGQNHHEVVKFMDVYQRSYCHPIETLVDIFQEYPDEIEYIFKPSCVPLMRCGGCCNDEGLECVPTEESNITMQIMRIKPHQGQHIGEMSFLQHNKCECRPKKDRARQENPCGPCSERRKHLFVQDPQTCKCSCKNTDSRCKARQLELNERTCRCDKPRR
efficacy in the db/db mouse (skin wounds): efficient

B2: TNC III5: fifth fibronectin type III domain of tenascin C, heparin-binding; tested as GST fusion (protein)
chain: LQVSETAETSLTLLWKTPLAKFDRYRLNYSLPTGQWVGVQLPRNTTSYVLRGLEPGQEYNVLLTAEKGRHKSKPARVKASTEQA
modifications: left off: a dimerising Fc or GST
notes: tested as GST fusion
domain responsible for binding of PDGF-BB (PDGF-BB; GST-fused TNC domains coated, 2 nM PDGF-BB): responsible for cytokine binding

B3: PDGF-BB: platelet derived growth factor BB (REGRANEx®) applied topically (protein)
chain: SLGSLTIAEPAMIAECKTRTEVFEISRRLIDRTNANFLVWPPCVEVQRCSGCCNNRNVQCRPTQVQLRPVQVRKIEIVRKKPIFKKATVTLEDHLACKCETVAAARPVT
efficacy in the db/db mouse (skin wounds): efficient

B4: TNC III4-5: fibronectin type III domains 4-5 of tenascin C (protein)
chain: APRNLRRVSQTDNSITLEWRNGKAAIDSYRIKYAPISGGDHAEVDVPKSQQATTKTTLTGLRPGTEYGIGVSAVKEDKESNPATINAATELDTPKDLQVSETAETSLTLLWKTPLAKFDRYRLNYSLPTGQWVGVQLPRNTTSYVLRGLEPGQEYNVLLTAEKGRHKSKPARVKASTEQA
cytokine-binding (PDGF-BB; test not specified): demonstrated cytokine-binding
